Experimental data reported in US20020028938A1, “Prostaglandin endoperoxide H synthase biosynthesis inhibitors” (priority 1997, published 2002).

How the values were obtained:
[1] = biological target: T1, human amnionic whole cell cyclooxygenase-2 (WISH cells) (Homo sapiens, UniProt P35354); assay: IL-1β induced PGE2 production in WISH cells; type: cell-based; settings: read-out: Wish IC50 (parenthetical value)
T1 construct: endogenous in cells; host or cells: human amnionic WISH cells, induced with IL-1beta
T1 sequence (P35354 18-604): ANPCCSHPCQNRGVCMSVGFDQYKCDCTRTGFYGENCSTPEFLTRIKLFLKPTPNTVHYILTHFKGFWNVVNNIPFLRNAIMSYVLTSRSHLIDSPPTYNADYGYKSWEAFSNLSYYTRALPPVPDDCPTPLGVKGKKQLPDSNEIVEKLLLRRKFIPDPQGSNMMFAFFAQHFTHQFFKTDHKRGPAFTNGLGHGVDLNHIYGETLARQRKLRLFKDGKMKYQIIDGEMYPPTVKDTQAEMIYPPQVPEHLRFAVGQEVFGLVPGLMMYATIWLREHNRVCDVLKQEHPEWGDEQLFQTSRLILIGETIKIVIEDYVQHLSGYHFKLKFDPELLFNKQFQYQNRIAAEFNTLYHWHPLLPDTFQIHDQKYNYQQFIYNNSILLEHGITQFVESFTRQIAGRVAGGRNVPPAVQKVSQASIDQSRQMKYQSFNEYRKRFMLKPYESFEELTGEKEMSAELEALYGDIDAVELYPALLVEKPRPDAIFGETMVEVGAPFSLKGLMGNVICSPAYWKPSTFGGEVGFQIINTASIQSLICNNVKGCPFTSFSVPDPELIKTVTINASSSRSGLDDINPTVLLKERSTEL
In short: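 Confluent (80%) WISH cells were stimulated with 5 ng/ml IL-1β in serum-free Neuman-Tytell medium, with or without test compound in DMSO (0.01% v/v). PGE2 in the culture medium was measured by EIA against standards prepared in the same medium, read by optical density.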

[2] = biological target: T2, Cox-1 in Monocyte U937 cells (Homo sapiens, UniProt P23219); assay: Monocyte U937 cell Cox-1 assay; type: cell-based; settings: read-out: U937 IC50 (parenthetical value)
T2 construct: endogenous in cells; host or cells: U937 monocyte cells (ATCC)
T2 sequence (P23219 24-599): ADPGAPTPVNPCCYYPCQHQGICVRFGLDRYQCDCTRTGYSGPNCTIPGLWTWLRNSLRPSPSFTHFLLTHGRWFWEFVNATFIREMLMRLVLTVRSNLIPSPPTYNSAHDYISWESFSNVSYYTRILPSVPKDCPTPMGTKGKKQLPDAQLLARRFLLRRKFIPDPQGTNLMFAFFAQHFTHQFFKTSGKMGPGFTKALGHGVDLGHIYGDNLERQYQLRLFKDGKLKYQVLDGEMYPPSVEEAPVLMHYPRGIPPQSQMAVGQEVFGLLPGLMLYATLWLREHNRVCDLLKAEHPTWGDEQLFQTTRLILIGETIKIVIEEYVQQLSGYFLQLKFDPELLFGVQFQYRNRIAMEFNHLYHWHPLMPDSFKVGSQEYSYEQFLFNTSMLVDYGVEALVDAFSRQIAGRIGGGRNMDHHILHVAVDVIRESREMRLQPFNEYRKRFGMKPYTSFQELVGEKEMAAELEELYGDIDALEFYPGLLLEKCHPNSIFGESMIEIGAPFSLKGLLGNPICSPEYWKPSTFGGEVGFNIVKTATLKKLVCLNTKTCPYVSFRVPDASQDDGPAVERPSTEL
Method: Human amnionic WISH cells were grown to 80% confluence in 48 well plates. Following removal of the growth medium and two washings with Geys Balanced Salt Solutn, 5 ng IL-1β /ml (UBI, Lake Placid, N.Y.) was added to the cells with or without test compound in DMSO (0.01% v/v) in Neuman-Tytell Serumless Medium (GIBCO, Grand Island, N.Y.). Following an 18 hour incubation to allow for the maximal induction of PGHS-2, the conditioned medium was removed and assayed for PGE2 content by EIA analysis as described above.
Monocyte U937 (ATCC, Rockville, Md.) cells were grown in a similar fashion to the WISH cells. After incubation, the conditioned medium was removed and assayed for […] by EIA analysis as described above.

[3] = tested on: air pouch prostaglandin biosynthesis (Cox-2); assay: Carrageenan induced air pouch prostaglandin biosynthesis model (CAP); type: in vivo, rat; settings: 4 h; 3 mpk, rat; read-out: CAP % Inhib. @ 3 mpk
In short: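 Male Sprague Dawley rats with dorsal air pouches (20 mL air day 0, 10 mL day 3) received 0.2% lambda carrageenan in saline into the pouch on day 7. Compounds dosed at 0.1 to 10 mg/kg 30 min before carrageenan; pouch lavaged 4 h later, prostaglandins measured by EIA. Percent inhibition versus control mean; ED50 by linear regression.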

[4] = tested on: carrageenan induced paw edema; assay: Carrageenan induced paw edema (CPE) in rats; type: in vivo; settings: 10 mpk oral, rat, 3 hours after carrageenan; read-out: CPE % Inhib. @ 10 mpk
In short: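 Male Sprague-Dawley rats (170–190 g) dosed orally in PEG 400, 1 h before subplantar 0.1 ml 1% lambda carrageenan in right hindpaw. Plethysmographic paw volume at 0 and 3 h; edema as difference, % inhibition versus control mean (±SEM), Dunnett's test, ED50 by linear regression.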

[5] = tested on: prostaglandin biosynthesis in vivo (pleural lavage eicosanoids); assay: Rat carrageenan pleural inflammation (CIP) model
In short: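 Male adrenalectomized Sprague-Dawley rats were dosed orally with compound suspended in PEG 400, 30 minutes before intrapleural 2% lambda carrageenan. Pleural lavage collected 4 hours later went into methanol (66% final), and eicosanoids were measured by EIA. Inhibition relative to control mean; ED50 by linear regression.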

SMILES: NS(=O)(=O)c1ccc(-c2cnn(-c3ccc(F)cc3)c(=O)c2-c2ccc(F)cc2)cc1 [Example 89]
- IC50 [1]: 50 nM
- IC50 [2]: 3800 nM
- inhibition in vivo at 3 mg/kg [3]: 94%
- inhibition in vivo at 10 mg/kg [4]: 45.5%
- inhibition in vivo at 10 mg/kg ([5]; 4 h, 10 mpk oral, read-out: CIP % Inhib. @ 10 mpk): 68.3%
- ED50 ([5]; oral): 3.4 mg/kg
- melting point: 213 to 216 °C
